Data from patent EP4624463A1, “SPIRO DERIVATIVE AS KIF18A INHIBITOR” (Insilico Medicine IP Limited, priority 2022, dated 2024).

biological target: T1, KIF18A (Homo sapiens, UniProt Q8NI77); assay: KIF18A enzyme inhibition activity assay (ADP-Glo); assay type: biochemical; settings: ADP-Glo kit, porcine tubulin, ATP; 10 concentration points, 3-fold serial dilution; 25°C
T1 sequence (Q8NI77 1-898): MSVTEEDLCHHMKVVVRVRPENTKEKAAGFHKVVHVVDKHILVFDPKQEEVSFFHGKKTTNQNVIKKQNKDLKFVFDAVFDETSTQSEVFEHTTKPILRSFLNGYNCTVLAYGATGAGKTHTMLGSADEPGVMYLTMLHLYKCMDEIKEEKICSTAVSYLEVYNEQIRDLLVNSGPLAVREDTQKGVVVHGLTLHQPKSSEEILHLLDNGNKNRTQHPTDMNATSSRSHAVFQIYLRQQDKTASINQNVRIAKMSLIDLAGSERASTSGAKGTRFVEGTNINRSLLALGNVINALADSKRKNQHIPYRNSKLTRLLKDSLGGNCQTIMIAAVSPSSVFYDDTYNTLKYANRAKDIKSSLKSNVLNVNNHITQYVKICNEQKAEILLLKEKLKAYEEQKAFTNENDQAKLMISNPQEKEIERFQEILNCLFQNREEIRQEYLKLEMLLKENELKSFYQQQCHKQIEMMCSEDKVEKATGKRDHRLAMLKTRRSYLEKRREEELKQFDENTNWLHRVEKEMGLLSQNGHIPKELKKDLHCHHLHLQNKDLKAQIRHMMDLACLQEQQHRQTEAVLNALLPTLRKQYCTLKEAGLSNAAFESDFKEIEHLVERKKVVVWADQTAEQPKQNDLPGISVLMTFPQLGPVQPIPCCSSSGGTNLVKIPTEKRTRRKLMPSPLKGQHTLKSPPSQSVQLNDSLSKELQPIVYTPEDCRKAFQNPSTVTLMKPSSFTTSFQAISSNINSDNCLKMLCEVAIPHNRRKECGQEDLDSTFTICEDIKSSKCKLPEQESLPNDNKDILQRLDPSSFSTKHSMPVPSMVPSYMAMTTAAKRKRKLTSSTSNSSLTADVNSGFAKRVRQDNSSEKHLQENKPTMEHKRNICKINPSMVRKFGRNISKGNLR
Procedure: Embodiment 6: Biological example: KIF18A enzyme inhibition activity assay
2) Steps: • 2.1 Preparation of enzyme protein buffer solution • 2.2 Activity screening • a) 40 µL of compound solution was added to a 384-well dilution plate; • b) A 3-fold serial dilution was performed to obtain 10 concentration points; • c) 0.1 µL of compound solution was transferred into a 384-well plate; • d) 5 µL of enzyme reaction solution was added and centrifuged at 1,000 RPM for 1 minute; • e) The reaction took place at 25°C for 15 minutes; • f) 5 µL of ATP reaction solution was added; • g) The reaction took place at 25°C for 60 minutes; • h) 10 µL of ADP-Glo reagent was added and centrifuged at 1,000 RPM for 1 minute; • i) The reaction took place at 25°C for 60 minutes; • j) 20 µL of detection reagent was added and centrifuged at 1,000 RPM for 1 minute; • k) The reaction took place at 25°C for 60 minutes; • l) The Envision 2104 plate reader was used to measure […]. 3) Data analysis • 3.1 Fluorescence signal values were obtained from the readings of each well • 3.2 Calculation of IC50 Concentration-response curve fitting and IC50 determination were performed using GraphPad Prism software with a four-parameter logistic regression model.

Compound	IC50 [nM]
O=C1c2ccc(NS(=O)(=O)CCO)cc2C2(CCCCC2)CN1c1cccc(N2CCOCC2)n1 [EX01, 2-Hydroxy-N-{2'-[6-(1,4-oxazinane-4-yl)pyridin-2-yl]-1'-oxo-2',3'-dihydro-1'H-spiro[cyclohexane-1,4'-isoquinoline]-6'-yl} ethanesulfonamide]	2030
Cc1cc(N2CC3(CCC4(CC4)CC3)c3cc(NS(=O)(=O)CCO)ccc3C2=O)nc(N2CCC(F)(F)CC2)n1 [EX02, N-{2-[2-(4,4-Difluorohexahydropyridin-1-yl)-6-methylpyrimidin-4-yl]-1-oxo-2,3-dihydro-1H-spiro[isoquinoline-4,6'-spiro[2.5]octane]-6-yl}-2-hydroxyethanesulfonamide]	38
O=C1c2ccc(NS(=O)(=O)CCO)cc2C2(CCC3(CC3)CC2)CN1c1ccc(=O)n(C2CC(F)(F)C2)n1 [EX05, N-{2-[1-(3,3-Difluorocyclobutyl)-6-oxo-1,2-diazacyclohexanecarbonate-3-yl]-1-oxo-2,3-dihydro-1H-spiro[isoquinoline-4,6'-spiro[2.5]octane]-6-yl}-2-hydroxyethanesulfonamide]	8.2

Continued, values first:

IC50 [nM]	Compound
44	Cc1cc(N2CC3(CCC(C)(C)CC3)c3cc(NS(=O)(=O)CCO)ccc3C2=O)nc(N2CCC(F)(F)CC2)n1 [EX03, N-{2'-[2-(4,4-difluorohexahydropyridin-1-yl)-6-methylpyrimidin-4-yl]-1,1-dimethyl-1'-oxo-2',3'-dihydro-1'H-spiro[cyclohexane-4,4'-isoquinoline]-6'-yl}-2-hydroxyethanesulfonamide]
107	C[C@@H]1CN(c2cccc(N3CC4(CCC5(CC5)CC4)c4cc(NS(=O)(=O)CCO)ccc4C3=O)n2)CCO1 [EX04, 2-Hydroxy-N-(2-{6-[(2R)-2-methyl-1,4-oxazinane-4-yl]pyridin-2-yl}-1-oxo-2,3-dihydro-1H-spiro[isoquinoline-4,6'-spiro[2.5]octane]-6-yl)ethanesulfonamide]
